Measured values: patent publication US8574546B2, “Substituted aryl-fluoroborates as imaging agents” (The University of British Columbia, priority 2007, dated 2013)

Columns and labels:
[1] = Rate of defluorination (18F/19F isotopic exchange) of aryltrifluoroborates, TLC autoradiography; format: physicochemical; conditions: FIGS. 1-4, time points 0-180 minutes after labeling
Method: A solution of boronic acid/ester at approximately 200 mM in 3 μl DMF is made, and 3 μL of aqueous fluoride at 800 mM added, comprising ˜1 mCi of carrier free ^18F (˜0.6 pmol of ^18F) and carrier ^19F in the form of KHF2 in 800 mM HOAc at pH 3-4, in a total volume of 10 μl at 10 mM total, providing 100 nmol of total fluoride at a pH of 4.5. Following a one hour labeling reaction at room temperature, the extent of fluorination as well as the stability with regards to isotopic exchange is evaluated by thin layer chromotography TLC as described below.
1 μL of the fluorination mix is diluted 1:100 in 200 mM phosphate buffer pH 7.5, 100 mM K^19F and allowed to equilibrate. A “zero” time point is taken, consisting of 1 μL of the fluorination mix added to the above phosphate-KF solution, mixed and then 0.5 μL of this dilution is immediately spotted on a TLC plate. […] A separate dilution is made for each time point. Spots are dried on the plate briefly in ambient air. […]
Once completed, an aliquot (1.5 μL) from the fluorination reaction solution is the added to a volume of 300 μL of a chase solution containing 200 mM phosphate and 100 mM KF (pH 7.5). […] Autoradiograms are then generated and analyzed by a phosphoimager. The densities of the free fluoride spot and the ArBF3 spot are quantified. […]

[2] = [18F] isotope exchange of [18/19F]-(3), dissociation rate of [18F]-fluoride from the trifluoroborate; format: physicochemical; conditions: 200 mM PO4, pH 7.5, 100 mM [19F]-NaF
Method: [^18F] Isotope Exchange—Using the Low-Activity Radiochemical Synthesis of [^18/19F]-(3).
In order to assay the dissociation rate of [^18F]-fluoride from the trifluoroborate (3), The six aliquots of Sample-A (each 10 μL, 1.5 nmol [^18/19F]-(3), 0.45 μCi (t=184 min)) were diluted 30 fold into 300 μL of a 200 mM PO4, pH 7.5, 100 mM [^19F]—NaF solution at different times. A volume of 0.5 μL of each dilution was spotted on a TLC plate which is run 2 inches in a 5:95 NH4OH:ethanol developing solution. Each spot that was deposited on the plate had spent increasing amounts of time in the solution containing a vast excess of [^19F]-fluoride. Following autoradiography, a rate constant for the isotopic exchange of [^18F]-fluoride from [^18/19F]-(3) was calculated.

Q: With `OB(O)c1cccc(F)c1F` [Compound 22] as the compound, how does the “retention of the fluorine radioisotope (18F) on TLC autoradiogram” value [1] read?
A: Its value is “retain the fluorine radioisotope longer than compounds 10 or 19”.

Q: Which “retention of the fluorine radioisotope (18F) on TLC autoradiogram” value [1] does the source give for `O=C(O)c1cccc(B(O)O)c1` [Compound 12] here?
A: Its value is “retain the fluorine radioisotope longer than compounds 10 or 19”.

Q: For `O=C1N[C@H]2[C@H](CS[C@H]2CCCCC(=O)N2CCN(C(=O)c3c(F)cc(F)c([B-](F)(F)F)c3F)CC2)N1` [(3), (2-(1,3,5-trifluoro-4-(trifluoroboryl)benzoyl)piperazin-1-yl) biotin], which “period in which 10% of the fluoride is solvolytically liberated” value [2] is on record?
A: Its value is at least 833 min.
